Measured values from ChEMBL document CHEMBL1122521, “Nucleic acid related compounds. 47. Synthesis and biological activities of pyrimidine and purine "acyclic" nucleoside analogues” (J Med Chem, 1984).
Converted amounts (≈) assume the structure as drawn.

Tests used:
Type in all cases: functional
L1210 [1] = assay: Inhibitory concentration required to reduce [3H-methyl]-dThd C incorporation into cellular DNA by 50% in Murine Leukemia L1210 cells; details: Mus musculus, read-out: ID50 (the source's name)
Human alphaherpesvirus 1 = assay: Concentration required to reduce cytopathogenicity of Herpes simplex virus type 1 (strain KOS) by 50% in primary rabbit kidney (PRK) cells
[2] = Inhibitory concentration required to reduce incorporation of 2-deoxythymidine (dThd) into DNA of Primary Rabbit kidney (PRK) cell cultures; details: Oryctolagus cuniculus, read-out: ID50 (the source's name)
L1210 [3] = assay: Inhibitory concentration required to reduce [3H1',2']dUrd incorporation into cellular DNA by 50% in Murine Leukemia L1210 cells; details: Mus musculus, read-out: ID50 (the source's name)
[4] = Ratio of ID50 for dThd or dUrd incorporation to ID50 for HSV-1, HSV-2 or VV(whatever was lowest)
[5] = system: Vesicular stomatitis virus; assay: Concentration required to reduce cytopathogenicity of Vesicular stomatitis virus by 50% in primary rabbit kidney (PRK) cells
L1210 [6] = assay: Inhibitory concentration required to reduce cell growth of Murine Leukemia L1210 cells; details: Mus musculus, read-out: ID50 (the source's name)
[7] = Inhibitory concentration required to reduce 2-deoxyuridine ([3H-1'2']dUrd) incorporation into DNA of Primary Rabbit kidney (PRK) cell cultures; details: Oryctolagus cuniculus, read-out: ID50 (the source's name)
Human alphaherpesvirus 2 = assay: Concentration required to reduce cytopathogenicity of Herpes simplex virus type 2 (strain G) by 50% in primary rabbit kidney (PRK) cells
[8] = Inhibitory concentration required to reduce incorporation of 2-deoxyuridine (dUrd) into DNA of Primary Rabbit kidney (PRK) cell cultures; details: Oryctolagus cuniculus, read-out: ID50 (the source's name)
L1210 [9] = assay: Inhibitory concentration required to reduce [3H1',2']dUrd incorporation into cellular DNA by 50 %; details: Mus musculus, read-out: ID50 (the source's name)
L1210 [10] = assay: Inhibitory concentration required to reduce [14C-2]-dUrd incorporation into cellular DNA by 50% in Murine Leukemia L1210 cells; details: Mus musculus, read-out: ID50 (the source's name)

| Compound | IC50 (L1210 [1]) [µg/mL] | ID50 (Human alphaherpesvirus 1) [µg/mL] | IC50 [2] [µg/mL] | IC50 (L1210 [3]) [µg/mL] | Antiviral index [4] | ID50 [5] [µg/mL] | IC50 (L1210 [6]) [µg/mL] | IC50 [7] [µg/mL] | ID50 (Human alphaherpesvirus 2) [µg/mL] | IC50 [8] [µg/mL] | IC50 (L1210 [9]) [µg/mL] | IC50 (L1210 [10]) [µg/mL] |
| --- | --- | --- | --- | --- | --- | --- | --- | --- | --- | --- | --- | --- |
| Nc1nc2c(ncn2COCCO)c(=O)[nH]1 [ACYCLOVIR] | 367 (≈ 1630 µM) | 0.05 (≈ 0.222 µM) | 12 (≈ 53.3 µM) | 50 (≈ 222 µM) | 300 | >400 | 13 (≈ 57.7 µM) | 13 (≈ 57.7 µM) | 0.04 (≈ 0.178 µM) |  |  |  |
| CC(=O)OCCOCn1cc(/C=C/Br)c(=O)[nH]c1=O | > 1000 | >400 | > 200 | > 1000 |  |  | > 1000 |  | >400 | > 400 |  |  |
| O=c1[nH]c(=O)n(COCCO)cc1[N+](=O)[O-] | > 1000 | >400 | > 400 | > 1000 |  |  | 447 (≈ 1930 µM) |  | >400 | > 400 |  |  |
| O=c1ccn(COCCO)c(=O)[nH]1 | > 1000 | >400 | > 400 | > 1000 |  |  | > 1000 |  | >400 | > 400 |  |  |
| Nc1nc(O)c2nc(N3CCCCC3)n(COCCO)c2n1 | > 500 | 70 (≈ 227 µM) | 250 (≈ 811 µM) | > 500 | 3.5 | >400 | > 500 |  | 150 (≈ 486 µM) | 333 (≈ 1080 µM) |  |  |
| O=c1[nH]c(=O)n(COCCO)cc1Cl | > 1000 | >400 | > 400 | > 1000 |  |  | > 1000 |  | >400 | > 400 |  |  |
| CN(C)c1nc2c(=O)[nH]c(N)nc2n1COCCO | > 500 | 30 (≈ 112 µM) | > 400 |  | 13 | >400 | > 500 |  | 250 (≈ 932 µM) | > 400 | > 500 |  |
| Cc1cn(COCCO)c(=O)[nH]c1=O | > 1000 | >400 | > 400 | > 1000 |  |  | > 1000 |  | >400 | > 400 |  |  |
| Nc1ccn(COCCO)c(=O)n1 | > 1000 | 70 (≈ 378 µM) | > 400 | > 1000 | > 5 | >400 | 675 (≈ 3650 µM) |  | 100 (≈ 540 µM) | > 400 |  |  |
| Nc1nc(Cl)c2ncn(COCCO)c2n1 | > 1000 | 2 (≈ 8.21 µM) | 50 (≈ 205 µM) | > 1000 | 25 | >400 | 69 (≈ 283 µM) | > 100 | 20 (≈ 82.1 µM) |  |  |  |
| Nc1nc2c(nc(Br)n2COCCO)c(=O)[nH]1 | > 500 | 0.5 (≈ 1.64 µM) | 340 (≈ 1120 µM) |  | 450 | >400 | 355 (≈ 1170 µM) |  | 0.5 (≈ 1.64 µM) | 225 (≈ 740 µM) | > 500 |  |
| Nc1nc2c(nc(N)n2COCCO)c(=O)[nH]1 | 500 (≈ 2080 µM) | 0.7 (≈ 2.91 µM) | 290 (≈ 1210 µM) |  | 667 | >100 | > 500 |  | 0.3 (≈ 1.25 µM) | 200 (≈ 833 µM) | 500 (≈ 2080 µM) |  |
| O=c1[nH]c(=O)n([C@H]2C[C@H](O)[C@@H](CO)O2)cc1F [FLOXURIDINE] | 80 (≈ 325 µM) |  |  |  |  |  | 0.001 (≈ 0.00406 µM) |  |  |  |  | 0.003 (≈ 0.0122 µM) |
| O=c1[nH]c(=O)n(COCCO)cc1Br | > 1000 | >400 | > 400 | > 1000 |  |  | > 1000 |  | >400 | > 400 |  |  |
| CC(=O)OCCOCn1cnc2c(Cl)nc(N)nc21 | > 1000 | 20 (≈ 70 µM) | 55 (≈ 193 µM) | > 1000 | 2.7 | >400 | 91 (≈ 319 µM) | 71 (≈ 249 µM) | 20 (≈ 70 µM) |  |  |  |
| O=c1[nH]c(=O)n(COCCO)cc1F | > 1000 | >400 | > 400 | > 1000 |  |  | > 1000 |  | >400 | > 400 |  |  |
| Nc1ncnc2c1ncn2COCCO | > 1000 | 10 (≈ 47.8 µM) | 49 (≈ 234 µM) | > 1000 | 2.2 | >400 | 19 (≈ 90.8 µM) |  | 10 (≈ 47.8 µM) | 22 (≈ 105 µM) |  |  |

| Compound | IC50 (L1210 [1]) [µg/mL] | ID50 (Human alphaherpesvirus 1) [µg/mL] | IC50 [2] [µg/mL] | IC50 (L1210 [3]) [µg/mL] | Antiviral index [4] | ID50 [5] [µg/mL] | IC50 (L1210 [6]) [µg/mL] | IC50 [7] [µg/mL] | ID50 (Human alphaherpesvirus 2) [µg/mL] | IC50 [8] [µg/mL] | IC50 (L1210 [9]) [µg/mL] | IC50 (L1210 [10]) [µg/mL] |
| --- | --- | --- | --- | --- | --- | --- | --- | --- | --- | --- | --- | --- |
| CC(=O)OCCOCn1cnc2c(Cl)nc(Cl)nc21 | 412 (≈ 1350 µM) | 2 (≈ 6.55 µM) | 10 (≈ 32.8 µM) | 98 (≈ 321 µM) | 1 |  | 12 (≈ 39.3 µM) |  | >10 | 2 (≈ 6.55 µM) |  |  |
| Nc1nc(=O)ccn1COCCO | > 500 | >400 | > 400 | > 500 |  |  | > 500 |  | >400 | > 400 |  |  |
| Cc1nc2c(O)nc(N)nc2n1COCCO | > 500 | 0.5 (≈ 2.09 µM) | > 400 | > 500 | > 800 | >400 | 323 (≈ 1350 µM) |  | 0.5 (≈ 2.09 µM) | > 400 |  |  |
| Nc1nc2c(nc(Cl)n2COCCO)c(=O)[nH]1 | > 1000 | 70 (≈ 270 µM) | > 400 | > 1000 | > 6 |  | 350 (≈ 1350 µM) | > 400 | >400 |  |  |  |
| O=c1[nH]c(=O)n([C@H]2C[C@H](O)[C@@H](CO)O2)cc1I [IDOXURIDINE] | 4.3 (≈ 12.1 µM) | 0.1 (≈ 0.282 µM) | 2 (≈ 5.65 µM) |  | 3 | >400 | 61 (≈ 172 µM) |  | 0.3 (≈ 0.847 µM) | 0.3 (≈ 0.847 µM) |  | 0.82 (≈ 2.32 µM) |
| OCCOCn1cnc2c(O)ncnc21 | > 1000 | >400 | > 100 | > 1000 |  |  | > 1000 | > 100 | >400 |  |  |  |
| O=c1[nH]c(=O)n(COCCO)cc1/C=C/Br | > 1000 | >400 | > 200 | > 1000 |  |  | > 1000 |  | >400 | > 400 |  |  |
| O=c1cc(O)ccn1COCCO | > 1000 | >400 | > 400 | > 1000 |  |  | > 1000 |  | >400 | > 400 |  |  |
| O=c1[nH]c(=O)n(COCCO)cc1I | > 1000 | >400 | > 400 | > 1000 |  |  | > 1000 |  | >400 | > 400 |  |  |
| Nc1nc2c(nc(I)n2COCCO)c(=O)[nH]1 | > 1000 | 0.4 (≈ 1.14 µM) | ≥ 350 |  | 625 | >400 | 39 (≈ 111 µM) |  | 0.4 (≈ 1.14 µM) | ≥ 250 | > 1000 |  |
| CC(=O)OCCOCn1cnc2c(Cl)ncnc21 | 475 (≈ 1750 µM) | 70 (≈ 259 µM) | 60 (≈ 222 µM) | 233 (≈ 861 µM) | 3 | >400 | 44 (≈ 163 µM) |  | 70 (≈ 259 µM) | 62 (≈ 229 µM) |  |  |
| CNc1nc2c(=O)[nH]c(N)nc2n1COCCO | > 500 | 7 (≈ 27.5 µM) | > 400 |  | 133 | >400 | > 500 |  | 3 (≈ 11.8 µM) | > 400 | > 500 |  |
| Nc1nc2c(nc(O)n2COCCO)c(=O)[nH]1 | > 500 | 15 (≈ 62.2 µM) | 48 (≈ 199 µM) |  | 3.2 | >400 | > 500 | ≥ 100 | 25 (≈ 104 µM) |  | > 500 |  |
| CN(C)c1ncnc2c1ncn2COCCO | > 500 | >400 | 400 (≈ 1690 µM) | > 500 | < 0.9 |  | > 500 |  | >400 | > 350 |  |  |
| Nc1nc(=O)n(COCCO)cc1[N+](=O)[O-] | > 500 | >400 | > 400 | 374 (≈ 1620 µM) |  |  | 71 (≈ 308 µM) |  | >400 | > 400 |  |  |
| O=c1[nH]c(=O)n([C@H]2C[C@H](O)[C@@H](CO)O2)cc1/C=C/Br [BRIVUDINE] |  | 0.007 (≈ 0.021 µM) | 73 (≈ 219 µM) |  | 3860 | >400 |  |  | 2 (≈ 6 µM) | 27 (≈ 81 µM) |  |  |
